From US20240335364A1, “COMPOSITIONS OF DICAFFEOYLQUINIC ACIDS WITH TOCOPHEROL” (SYMRISE AG, priority 2021, published 2024)

Assays:
[1] = system: DSG1; assay: Modulation of DSG1 gene expression of keratinocytes (real-time qPCR, RQ); assay type: cell-based, human; set-up: key: relative quantity vs DMSO vehicle control (qPCR); settings: nHEK, 24 h
Method: (§1) Neonatal human epidermal keratinocytes (nHEK) were cultivated in an EpiLife® medium (Gibco) including an HKGS kit (Gibco) with 5% CO2 at 37° C. in accordance with the supplier's instructions. The cells were treated for 24 hours, with 0.0005% of the different dicaffeoylquinic acids from above dissolved in DMSO and DMSO alone as the vehicle control. Genomic target expression levels in treated cells were measured using a quantitative Real-Time PCR comparison to vehicle control treatment.
(§2) RNA was isolated using Qiagen's RNeasy® Mini Kit. The total RNA concentrations were measured using Eppendorf's μCuvetteG 1.0 and BioPhotometer, by measuring the absorption at 260 nm. Purity control values such as E260/280 and E260/230 were calculated simultaneously. Reverse transcription was performed using the high-capacity RNA-to-cDNA kit of Applied Biosystems, in accordance with the supplier's instructions. Samples were treated in Biometra's PCR Thermocycler. For fast real-time qPCR, the cDNA was diluted with RNase-free water, and the TaqMan™ Fast Universal PCR Master Mix of Applied Biosystems was used. Quantitative real time PCR was performed using the StepOnePlus fast real-time PCR instrument by Applied Biosystems. Analysis was conducted using the StepOne software and […] (normalised to endogenous control […] expression). For upregulations, RQ values ≥2.5 are considered to be relevant.
(§3) Neonatal human epidermal keratinocytes (nHEK) were cultivated as described in Example 1 and treated for 24 hours with 0.0007% of the different monocaffeoylquinic acids. Afterwards fast real-time qPCR was performed as described in above using a customised gene array.
(§4) Neonatal human epidermal keratinocytes (nHEK) were cultivated as described in Example 1 and treated for 24 hours with 0.005% of the extract samples. Afterwards fast real-time qPCR was performed as described in above using a customized gene array.
(§5) Neonatal human epidermal keratinocytes (nHEK) were cultivated as described in Example 1 and treated for 24 hours with 4,5-dicaffeoylquinic acid (CAS number 14534-61-3, Phytolab GmbH & Co. KG) and (±)-α-tocopherol (CAS number 10191-41-0, synonym: Synonym: DL-α-Tocopherol, Vitamin E, Sigma-Aldrich, synthetic) alone and in combination. Afterwards fast real-time qPCR was performed as described in above using a customised gene array.
(§6) [formula] • With • A=RQ value by 4,5-dicaffeoylquinic acid at concentration x • B=RQ value by tocopherol at concentration y • C=RQ value by the combination of 4,5-dicaffeoylquinic acid at concentration x/2 and tocopherol at concentration y/2 • D=Factor for 4,5-dicaffeoylquinic acid=>0.5 (due to half concentration tested in the combination) • E=Factor for tocopherol=>0.5 (due to half concentration tested in the combination) • A SI=1 is obtained for additive activity of the two combined components, whereas a SI <1 proves antagonistic activity (observed efficacy is lower than additive) and SI >1 proves synergistic activity (observed efficacy is higher than additive).
(§7) Neonatal human epidermal keratinocytes (nHEK) were cultivated as described in Example 1 and treated for 24 hours with 3,4-dicaffeoylquinic acid (CAS number 57378-72-0, Phytolab GmbH & Co. KG) and (+)-α-tocopherol (CAS number 59-02-9, synonym: Synonym: D-α-tocopherol, Vitamin E, Sigma-Aldrich) alone and in combination. Afterwards fast real-time qPCR was performed as described in above using a customised gene array. For upregulations, RQ values ≥2.5 are considered to be relevant.
Neonatal human epidermal keratinocytes (nHEK) were cultivated as described above and treated for 24 hours with 3,5-dicaffeoylquinic acid (CAS number 2450-53-5, Phytolab GmbH & Co. KG) and D-α-tocopherol (CAS number 59-02-9, synonym: (+)-α-tocopherol, Vitamin E, trade name: Copherol® F 1300 C, BTC Europe GmbH) alone and in combination. Afterwards fast real-time qPCR was performed as described in above using a customised gene array. […]

[2] = system: OCLN; assay: Modulation of OCLN gene expression of keratinocytes (real-time qPCR, RQ); assay type: cell-based, human; set-up: key: RQ: expression relative to DMSO vehicle control (qPCR); settings: nHEK, 24 h
Method: as §1, §2, §3, §4, §5, §6
(§8) Neonatal human epidermal keratinocytes (nHEK) were cultivated as described above and treated for 24 hours with yarrow extract of example 3 (Achillea millefolium, freeze-dried fresh press juice of flowering aerials, cultivated in Germany) and (±)-α-tocopherol (CAS number 10191-41-0, synonym: Synonym: DL-α-Tocopherol, Vitamin E, Sigma-Aldrich, synthetic) alone and in two combinations. Afterwards fast real-time qPCR was performed as described in above using a customised gene array.

[3] = system: HSPB2; assay: Modulation of HSPB2 gene expression of keratinocytes (real-time qPCR, RQ); assay type: cell-based, human; set-up: key: relative quantity vs DMSO vehicle control (qPCR); settings: nHEK, 24 h
Method: as §1, §2, §3, §5, §6, §8

[4] = system: HSPB8; assay: Modulation of HSPB8 gene expression of keratinocytes (real-time qPCR, RQ); assay type: cell-based, human; set-up: key: RQ: expression relative to DMSO vehicle control (qPCR); settings: nHEK, 24 h
Method: as §1, §2, §3, §4, §5, §6, §8

[5] = system: DEFB1; assay: Modulation of DEFB1 gene expression of keratinocytes (real-time qPCR, RQ); assay type: cell-based, human; set-up: key: RQ = expression relative to DMSO vehicle control (qPCR); settings: nHEK, 24 h
Method: as §1, §2, §3, §5, §6, §8
Neonatal human epidermal keratinocytes (nHEK) were cultivated as described above and treated for 24 hours with yarrow extract of example 3 (Achillea millefolium, freeze-dried fresh press juice of flowering aerials, cultivated in Germany) and (+)-α-tocopherol (CAS number 59-02-9, synonym: Synonym: D-α-tocopherol, Vitamin E, Sigma-Aldrich) alone and in combination. Afterwards fast real-time qPCR was performed as described in above using a customised gene array.

[6] = system: CRYAB; assay: Modulation of CRYAB gene expression of keratinocytes (real-time qPCR, RQ); assay type: cell-based, human; set-up: key: relative quantity (RQ) vs DMSO vehicle-treated control; settings: nHEK, 24 h
Method: as §1, §2, §3, §4, §5, §6
Neonatal human epidermal keratinocytes (nHEK) were cultivated as described above and treated for 24 hours with 3,5-dicaffeoylquinic acid (CAS number 2450-53-5, Phytolab GmbH & Co. KG) and D-α-tocopherol (CAS number 59-02-9, synonym: (+)-α-tocopherol, Vitamin E, trade name: Copherol® F 1300 C, BTC Europe GmbH) alone and in combination. Afterwards fast real-time qPCR was performed as described in above using a customised gene array.
(§9) Neonatal human epidermal keratinocytes (nHEK) were cultivated as described above and treated for 24 hours with yarrow extract of example 3 (Achillea millefolium, freeze-dried fresh press juice of flowering aerials, cultivated in Germany) and (±)-α-tocopherol (CAS number 10191-41-0, synonym: Synonym: DL-α-Tocopherol, Vitamin E, Sigma-Aldrich, synthetic) alone and in two combinations. Afterwards fast real-time qPCR was performed as described in above using a customised gene array. […]

[7] = system: DSC1; assay: Modulation of DSC1 gene expression of keratinocytes (real-time qPCR, RQ); assay type: cell-based, human; set-up: key: RQ: expression relative to DMSO vehicle control; settings: nHEK, 24 h
Method: as §1, §2, §3, §4, §5, §6, §7, §9

[8] = system: CLDN1; assay: Modulation of CLDN1 gene expression of keratinocytes (real-time qPCR, RQ); assay type: cell-based, human; settings: nHEK, 24 h
Method: as §1, §2, §3, §4, §5, §6, §7, §8

[9] = system: Neonatal human epidermal keratinocytes (nHEK); assay: Modulation of gene expression of keratinocytes, whole gene array (statements in words); assay type: cell-based; settings: 24 h
Method: as §1, §2, §3, §4

[10] = 0.003% tocopherol alone, Example 8

Structure (SMILES) | RQ value DSG1 ([1]; 0.0005%, Example 1) | RQ value OCLN ([2]; 0.0005%, Example 1) | RQ value HSPB2 ([3]; 0.0005%, Example 1) | RQ value HSPB8 ([4]; 0.0005%, Example 1) | RQ value DEFB1 ([5]; 0.0005%, Example 1) | RQ value CRYAB ([6]; 0.0005%, Example 1) | RQ value DSC1 ([7]; 0.0005%, Example 1) | RQ value CLDN1 ([8]; 0.0005%, Example 1) | RQ value DSG1 ([1]; 0.0007%, Example 2) | RQ value OCLN ([2]; 0.0007%, Example 2) | RQ value HSPB2 ([3]; 0.0007%, Example 2) | RQ value HSPB8 ([4]; 0.0007%, Example 2) | RQ value DEFB1 ([5]; 0.0007%, Example 2) | RQ value CRYAB ([6]; 0.0007%, Example 2) | RQ value DSC1 ([7]; 0.0007%, Example 2) | RQ value CLDN1 ([8]; 0.0007%, Example 2) | also measured
O=C(/C=C/c1ccc(O)c(O)c1)O[C@@H]1C[C@](OC(=O)/C=C/c2ccc(O)c(O)c2)(C(=O)O)C[C@@H](O)[C@H]1O [1,5-Dicaffeoylquinic acid, 1,5-dicaffeoylquinic acid] | 5.3 | 2.2 | 2.4 | 2.8 | 2.4 | 7.2 | 7.6 | 2.4 | – | – | – | – | – | – | – | – | –
O=C(/C=C/c1ccc(O)c(O)c1)O[C@@H]1[C@H](O)C[C@@](O)(C(=O)O)C[C@H]1OC(=O)/C=C/c1ccc(O)c(O)c1 [3,4-Dicaffeoylquinic acid, 3,4-dicaffeoylquinic acid] | 14.9 | 4.2 | 4.9 | 7.3 | 3.5 | 18.7 | 25.8 | 5.1 | – | – | – | – | – | – | – | – | RQ value DSG1 ([1]; 0.0006% alone, Example 5): 2.1; RQ value DSC1 ([7]; 0.0006% alone, Example 5): 6.2; RQ value CLDN1 ([8]; 0.0006% alone, Example 5): 4.2
O=C(/C=C/c1ccc(O)c(O)c1)O[C@@H]1CC(O)(C(=O)O)C[C@@H](OC(=O)/C=C/c2ccc(O)c(O)c2)C1O (some centres unmarked) [3,5-Dicaffeoylquinic acid, 3,5-dicaffeoylquinic acid] | 12.2 | 3.5 | 6.1 | 6.2 | 3.4 | 16.5 | 20.5 | 4.7 | – | – | – | – | – | – | – | – | RQ value DSG1 ([1]; 0.0002% alone, Example 6): 2.4; RQ value CRYAB ([6]; 0.0002% alone, Example 6): 2.7
O=C(/C=C/c1ccc(O)c(O)c1)O[C@@H]1C[C@](O)(C(=O)O)C[C@@H](O)[C@H]1O [3-caffeoyl-quinic acid, 3-Caffeoylquinic acid] | – | – | – | – | – | – | – | – | 0.7 | 1.0 | 0.8 | 0.8 | 1.1 | 0.9 | 1.0 | 0.8 | –
O=C(/C=C/c1ccc(O)c(O)c1)O[C@H]1[C@H](O)C[C@](O)(C(=O)O)C[C@H]1OC(=O)/C=C/c1ccc(O)c(O)c1 [4,5-Dicaffeoylquinic acid, 4,5-dicaffeoylquinic acid] | 10.6 | 2.4 | 4.3 | 4.2 | 3.2 | 13.8 | 18.1 | 3.5 | – | – | – | – | – | – | – | – | RQ value DSG1 ([1]; 0.0007% alone, Example 4): 11.1; RQ value OCLN ([2]; 0.0007% alone, Example 4): 3.4; RQ value HSPB2 ([3]; 0.0007% alone, Example 4): 5.7; RQ value HSPB8 ([4]; 0.0007% alone, Example 4): 6.2; RQ value DEFB1 ([5]; 0.0007% alone, Example 4): 4.3; RQ value CRYAB ([6]; 0.0007% alone, Example 4): 21.1; RQ value DSC1 ([7]; 0.0007% alone, Example 4): 25.0; RQ value CLDN1 ([8]; 0.0007% alone, Example 4): 2.4
O=C(/C=C/c1ccc(O)c(O)c1)O[C@H]1[C@H](O)C[C@](O)(C(=O)O)C[C@H]1O [4-caffeoyl-quinic acid, 4-caffeoylquinic acid] | – | – | – | – | – | – | – | – | 1.9 | 1.0 | 2.2 | 1.0 | 1.9 | 1.9 | 2.2 | 0.8 | –
O=C(/C=C/c1ccc(O)c(O)c1)O[C@@H]1C[C@@](O)(C(=O)O)C[C@@H](O)[C@@H]1O [5-caffeoyl-quinic acid, 5-caffeoylquinic acid] | – | – | – | – | – | – | – | – | 0.5 | 0.8 | 1.0 | 0.6 | 0.7 | 0.7 | 0.7 | 0.8 | –
Cc1c(C)c2c(c(C)c1O)CC[C@@](C)(CCC[C@H](C)CCC[C@H](C)CCCC(C)C)O2 [(+)-alpha-tocopherol, (+)-α-tocopherol] | – | – | – | – | – | – | – | – | – | – | – | – | – | – | – | – | RQ value DSG1 ([1]; 0.003% alone, Example 5): 0.4; RQ value DSG1 [1, 10]: 0.4; RQ value DSG1 ([1]; 0.01% alone, Example 6): 0.7; RQ value DEFB1 [5, 10]: 0.8; RQ value CRYAB [6, 10]: 0.7; RQ value CRYAB ([6]; 0.01% alone, Example 6): 0.5; RQ value DSC1 ([7]; 0.003% alone, Example 5): 0.6; RQ value DSC1 [7, 10]: 0.6; RQ value CLDN1 ([8]; 0.003% alone, Example 5): 0.4; relevant modulation of the selected genes (RQ ≥2.5) ([9]; tocopherol alone at 0.003%): does not relevantly modulate any of the selected genes; relevant modulation of the selected genes (RQ ≥2.5) ([9]; tocopherol alone at 0.01%): does not relevantly modulate any of the selected genes
